Measured values reported in patent publication US20240342186A1, “PYRIDINE DERIVATIVES WITH N-LINKED CYCLIC SUBSTITUENTS AS cGAS INHIBITORS” (Boehringer Ingelheim International GmbH, priority 2021, published 2024).
Read-outs that look alike come from different tables or passages of the source.

Key:
[1] = test system: cellular cGAS activity in dsDNA-stimulated human whole blood; assay: Human whole blood assay (hWB IC50): IFNα2α production after dsDNA transfection; assay type: cell-based; conditions: inhibition of IFN induction in dsDNA-stimulated human whole blood
Method: 6.3 Method: Human Whole Blood Assay (Human WB IC50)
For the detection of cellular cGAS activity human whole blood was stimulated by transfection with double stranded DNA. Pathway activity was monitored by measuring the IFNα2α production.
Compounds were delivered as 10 mM DMSO solution and serially diluted and transferred to the 96-well cell culture plate (Corning #3595), prefilled with 20 μl OptiMEM (Gibco, #11058-021) in each well, using an Echo acoustic dispenser. Typically, 8 concentrations were used with the highest concentration at 10 µM in the final assay volume followed by ˜1:5 dilution steps. DMSO concentration was set to 0.1% in the final assay volume. The 96-well assay plate contained 10 test compounds, and DMSO in control wells.
Collection of human whole blood from 3 or more healthy donors (male or female, no medication for 7 days except contraceptive and thyroxine) as Na-Citrate blood (e.g. 3.8% in Monovettes from Sarstedt) was conducted in parallel. Whole blood was kept at room temperature for a maximum of 3 hours after collection until use in the assay.
160 μl of the whole blood samples was transferred to each well of the 96-well assay plates filled with compound/OptiMEM. All assay plates were prepared as duplicates with blood from different donors. Blood plates were kept at room temperature for 60 minutes and continuous shaking with 450 rpm, covered with the lid, but not sealed.
20 μl OptiMEM and 9.6:1 Fugene was added to all low control wells.
After covering assay plates with aera seals and the lid, blood plates were kept at room temperature for 30 minutes and continuous shaking with 450 rpm, followed by an overnight incubation of 22 h at 37° C. in the incubator, without shaking.
For the detection of IFNα-2α in human plasma, the biotinylated capture antibody (Antibody set IFNA2, Meso Scale Diagnostics #B21VH-3, including coating and capture antibody) was diluted 1:17.5 in Diluent 100 (Meso Scale Diagnostics #R^50AA-4), according to the manufacturer's directions. U-Plex MSD GOLD 96-well Small Spot Strepavidin SECTOR Plates (Meso Scale Diagnostics #L45SA-5) were coated with 25 μl diluted capture antibody. Coated plates were incubated for 60 min at room temperature under continuous shaking at 700 rpm. MSD IFNα-2α plates were washed three times with 150 μl wash buffer (1x HBSS, 0.05% Tween).
After blocking the plates with 100 μl block solution/well (1x HBSS with 0.2% Tween, 2% BSA) for 60 min at room temperature and continuous shaking at 700 rpm, plates were emptied as dry as possible by dumping just before continuing with the human plasma.
Whole Blood assay plates were centrifuged at 1600 rpm for 10 minutes. 25 μl of supernatant was transferred with a pipetting robot from each whole blood plate to the corresponding IFNα-2α plate. Plates were sealed with microplate seals and kept at room temperature again under continuous shaking at 700 rpm for two hours.
Next MSD IFNα-2α plates were washed three times with 150 μl wash buffer (1×HBSS, 0.05% Tween), before adding 25 μl MSD SULFO-TAG IFNα-2α Antibody solution (1:100 diluted in Diluent 3 (Meso Scale Diagnostics #R50AP-2) to each well of the plates.
Afterwards plates were sealed with microplate seals and kept at room temperature again under continuous shaking at 700 rpm for two hours. Finally, MSD IFNα-2α plates were washed three times with 150 μl wash buffer (1×HBSS, 0.05% Tween). 150 μl 2× Read buffer was added to each well and plates were immediately measured with the MSD Sector S600 Reader using the vendor barcode.
For data evaluation and calculation, % control calculation of each well was based on the mean of high (DNA stimulated control) and mean of low (unstimulated control) controls by using the following formula:
[counts(sample)−counts(low))/(counts(high)−counts(low))]*100
The IC50 values were calculated using the standard 4 parameter logistic regression formula. Calculation: [y=(a−d)/(1+(x/c)^b)+d], a=low value, d=high value; x=conc M; c=IC50 M; b=slope

[2] = test system: cellular cGAS activity in baculovirus-stimulated THP1-Dual cells (IRF dependent Lucia luciferase reporter); assay: Human cGAS cell assay: inhibition of IFN induction in virus-stimulated THP1 cells (THP1(vir) IC50); assay type: cell-based; conditions: Homo sapiens, THP1-Dual
Excerpt: (§1) 6.2 Method: Human cGAS Cell Assay and cGAMP Stimulated Counter Cell Assay (THP1(vir) IC50 and THP1(cGAMP) IC50)
(§2) THP1-Dual™ cells (InvivoGen #thpd-nfis) expressing IRF dependent Lucia luciferase reporter were used as basis for both assays. For the detection of cellular cGAS activity cells were stimulated by a baculovirus (pFastbac-1, Invitrogen, no coding insert) infection that delivers the cGAS enzyme stimulating double-stranded DNA (measurement of THP1(vir) IC50).
(§3) For the counter assay, cells were stimulated by cGAMP (SigmaAldrich #SML1232) to activate the identical pathway independent and directly downstream of cGAS (measurement of THP1(cGAMP) IC50). Pathway activity was monitored by measuring the Lucia luciferase activity induced by either DNA stimulated cGAS enzyme activity (measurement of THP1(vir) IC50) or by cGAMP directly (measurement of THP1(cGAMP) IC50, counter assay).
(§4) Compounds were delivered in 10 mM DMSO solution, serially diluted and transferred to the 384 well assay plate (Greiner #781201) using an Echo acoustic dispenser. Typically, 8 concentrations were used with the highest concentration at 10 μM in the final assay volume followed by ˜1:5 dilution steps. DMSO concentration was set to 1% in the final assay volume. The 384 well assay plate contained 21 test compounds (column 1-22), and DMSO in column 23 and 24.
(§5) Cells, cultivated according to manufacturer conditions, were harvested by centrifugation at 300 g/10 min and were then resuspended and diluted to 1.66E5 cells/ml in fresh cell culture medium (RPMI 1640 (Gibco #A10491-01), 10% FCS (Gibco #10500), 1× GlutaMax (Gibco #35050-061), 1× Pen/Strep solution (Gibco #15140-122), 100 μg/ml Normocin (InvivoGen #ant-nr), 100 μg/ml Zeocin (InvivoGen #ant-zn), 10 μg/ml Blasticidin S (Life Technologies #A11139-03)). The baculovirus solution was then added 1:200 (have varied according to virus batch) to the cells (measurement of THP1(vir) IC50).
(§6) 30 μL of the cell/virus-mix were added to each well of the compound plate from column 1-23 via MultiDrop Combi dispenser (5000 cells/well). In column 24, 30 μl/5000 cells/well without virus were added as a low control.
(§7) The plates were then incubated for 18 h at 37° C. in a humidified incubator.
(§8) Following that, 15 μl of QuantiLuc detection reagent (InvivoGen #rep-qlcg5) were added to each well using a MultiDrop Combi. Measurement was done immediately after the addition using an EnVision reader (US-luminescence read-mode).
(§9) For data evaluation and calculation, the measurement of the low control was set as 0% control and the measurement of the high control was set as 100% control. The IC50 values were calculated using the standard 4 parameter logistic regression formula. Calculation: [y=(a−d)/(1+(x/c)^b)+d], a=low value, d=high value; x=conc M; c=IC50 M; b=slope

cGAS = cGAS (Homo sapiens (Human), UniProt Q8N884); assay: Human cGAS enzyme assay (hcGAS IC50, in vitro), cGAMP formation by RapidFire MS; assay type: biochemical; conditions: biochemical (in vitro) cGAS inhibition;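 further: enzyme activated by 45 bp dsDNA with GTP and ATP (30 µM each), 60 min compound pre-incubation then 90 min reaction, cGAMP relative to cyclic-di-GMP internal standard, 8-point dilutions up to 10 µM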
cGAS, sequence (Q8N884 whole entry): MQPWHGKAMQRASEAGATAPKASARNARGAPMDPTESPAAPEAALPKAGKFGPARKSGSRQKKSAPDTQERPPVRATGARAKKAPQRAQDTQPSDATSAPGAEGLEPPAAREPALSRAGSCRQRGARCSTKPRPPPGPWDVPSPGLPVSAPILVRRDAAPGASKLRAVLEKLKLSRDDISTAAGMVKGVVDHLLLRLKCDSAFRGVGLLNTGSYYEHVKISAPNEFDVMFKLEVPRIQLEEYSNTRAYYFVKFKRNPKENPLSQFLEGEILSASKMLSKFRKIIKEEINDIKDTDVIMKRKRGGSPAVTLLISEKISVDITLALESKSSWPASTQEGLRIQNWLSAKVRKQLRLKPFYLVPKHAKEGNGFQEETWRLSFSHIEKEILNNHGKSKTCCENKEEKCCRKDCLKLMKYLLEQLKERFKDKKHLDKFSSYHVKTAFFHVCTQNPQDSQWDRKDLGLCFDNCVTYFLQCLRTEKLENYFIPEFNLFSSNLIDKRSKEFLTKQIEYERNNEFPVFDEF

[3] = test system: cGAMP-stimulated THP1-Dual cells (pathway directly downstream of cGAS); assay: cGAMP stimulated counter cell assay: inhibition of IFN induction in cGAMP-stimulated THP1 cells (THP1(cGAMP) IC50); assay type: cell-based, human; conditions: for IC50: Homo sapiens, THP1-Dual; for Ratio THP1(cGAMP) IC50 / THP1(vir) IC50: selectivity for cGAS inhibition
Excerpt: as §1, §2, §3, §4, §5, §6, §7, §8, §9

[4] = inhibition of IFN induction in virus-stimulated THP1 cells, read-out: THP1(vir) IC50
[5] = inhibition of IFN induction in cGAMP-stimulated THP1 cells, read-out: THP1(cGAMP) IC50 (converted)
[6] = read-out: THP1(vir) IC50, virus-stimulated THP1 cells, IFN induction
[7] = cGAMP-stimulated THP1 cells, counter assay, read-out: THP1(cGAMP) IC50 (converted)
[8] = read-out: THP1(vir) IC50, inhibition of IFN induction in virus-stimulated THP1 cells

| IC50 [1] | IC50 [2, 4] | IC50 (cGAS) | Compound | IC50 [3, 5] | Ratio THP1(cGAMP) IC50 / THP1(vir) IC50 [3] | also measured |
| --- | --- | --- | --- | --- | --- | --- |
| 0.029 µM | 0.021 µM | 0.005 µM | C#Cc1cnc(O[C@H]2C[C@@H](C(=O)O)N(c3nc(C(F)(F)F)nc4c3oc3ccccc34)C2)c(N2CCCC3(COC3)[C@@H]2C)c1 [Example 1.22] | 7.64 µM | 355 |  |
| 0.85 µM | 0.848 µM |  | O=C(O)[C@@H]1C[C@H](Oc2ncc(Br)cc2N2CCOC3(COC3)C2)CN1c1nc(C(F)F)nc2c1oc1ccccc12 [Example 1.24] | > 16.6 µM | >20 |  |
|  |  |  | Cc1nc(N2C[C@@H](CC(=O)Nc3ccncc3)C[C@H]2C(=O)O)c2oc3ccccc3c2n1 [Example 28, reference compound] |  |  | IC50 [2, 6]: > 32 µM |
| 0.009 µM | < 0.005 µM |  | C#Cc1cnc(O[C@H]2C[C@@H](C(=O)O)N(c3nc(C)nc4c3oc3ccccc34)C2)c(N2CCOC3(COC3)[C@@H]2C)c1 [Example 2.03] | 16.4 µM |  |  |
|  |  |  | Cc1nc(N2C[C@@H](Nc3ccncc3)C[C@H]2C(=O)O)c2oc3ccccc3c2n1 [Example 38, reference compound] |  |  | IC50 [3, 7]: > 17 µM |
|  | 0.951 µM | 0.065 µM | C[C@@H]1OCCN(c2cc(Cl)cnc2O[C@H]2C[C@@H](C(=O)O)N(c3nc(C(F)(F)F)nc4c3oc3ccccc34)C2)[C@H]1C [Example 1.06] | 14.3 µM | 15 |  |
|  | 0.831 µM | 0.004 µM | O=C(O)[C@@H]1C[C@H](Oc2ncc(Cl)cc2N2CCc3nocc3C2)CN1c1nc(C(F)F)nc2c1oc1ccccc12 [Example 1.08] | 18.7 µM | 23 |  |
| 0.005 µM | 0.006 µM |  | C#Cc1cnc(O[C@H]2C[C@@H](C(=O)O)N(c3nc(C(F)F)nc4c3oc3ccccc34)C2)c(N2CCOC3(COC3)[C@@H]2C)c1 [Example 1.11] | 18.5 µM |  |  |
|  | 0.487 µM | 0.004 µM | C#Cc1cnc(O[C@H]2C[C@@H](C(=O)O)N(c3nc(Cl)nc4c3oc3ccccc34)C2)c(N2CCOC[C@@H]2C)c1 [Example 1.32] |  |  |  |
| 3.7 µM | 0.327 µM |  | CC1(C#N)CCCN(c2cc(Cl)cnc2O[C@H]2C[C@@H](C(=O)O)N(c3nc(C(F)F)nc4c3oc3ccccc34)C2)C1 (stereo partly shown) [Example 1.04] | 10 µM | 31 |  |
|  | 0.829 µM | 0.008 µM | N#CC1CN(c2cc(Cl)cnc2O[C@H]2C[C@@H](C(=O)O)N(c3nc(C(F)(F)F)nc4c3oc3ccccc34)C2)CCO1 (stereo partly drawn) [Example 1.01, (2S,4S)-4-{[5-Chloro-3-(2-cyanomorpholin-4-yl)pyridin-2-yl]oxy}-1-[4-(trifluoromethyl)-8-oxa-3,5-diazatricyclo[7.4.0.0^2,7]trideca-1(13),2,4,6,9,11-hexaen-6-yl]pyrrolidine-2-carboxylic acid] | 24.6 µM | 30 |  |
|  |  |  | CC(C)(C(=O)N[C@H]1C[C@@H](C(=O)O)N(c2nc(C(F)(F)F)nc3c2oc2ccccc23)C1)c1cn[nH]c1 [Example 58, reference compound] |  |  | IC50 [2, 6]: 21 µM |
|  |  |  | Cc1nc(N2CCC[C@H]2C(=O)O)c2oc3ccccc3c2n1 [Example 15, reference compound] |  |  | IC50 [3, 7]: > 17 µM |
|  | 0.781 µM | 0.005 µM | O=C(O)[C@@H]1C[C@H](Oc2ncc(Cl)cc2N2CCc3nocc3C2)CN1c1nc(C(F)(F)F)nc2c1oc1ccccc12 [Example 1.07] | 18.7 µM | 24 |  |
|  | 0.712 µM | 0.014 µM | C[C@@H]1N(c2cc(-c3cccnc3C#N)cnc2O[C@H]2C[C@@H](C(=O)O)N(c3nc(C(F)(F)F)nc4c3oc3ccccc34)C2)CCOC12COC2 [Example 3.28] | 16.4 µM | 23 |  |

| Compound | IC50 [1] | IC50 [2, 4] | IC50 (cGAS) | IC50 [3, 5] | Ratio THP1(cGAMP) IC50 / THP1(vir) IC50 [3] | also measured |
| --- | --- | --- | --- | --- | --- | --- |
| C[C@@H]1N(c2cc(-c3ccnc(N(C)C)c3)cnc2O[C@H]2C[C@@H](C(=O)O)N(c3nc(C(F)F)nc4c3oc3ccccc34)C2)CCOC12COC2 [Example 4.01, (2S,4S)-1-[4-(Difluoromethyl)-8-oxa-3,5-diazatricyclo[7.4.0.0^2,7]trideca-1(9),2(7),3,5,10,12-hexaen-6-yl]-4-({N,N-dimethyl-5-[(9S)-9-methyl-2,5-dioxa-8-azaspiro[3.5]nonan-8-yl]-[3,4′-bipyridin]-2′-yl}oxy)pyrrolidine-2-carboxylic acid] | 0.005 µM |  |  |  |  | IC50 [2, 8]: < 0.005 µM; IC50 ([3]; read-out: THP1(cGAMP) IC50): 6.68 µM |
| C#Cc1cnc(O[C@H]2C[C@@H](C(=O)O)N(c3nc(C(F)F)nc4c3oc3ccccc34)C2)c(N2CCOC3(COC3)C2)c1 [Example 1.25] | 0.551 µM |  |  |  | >32 | IC50 [2, 8]: 0.517 µM; IC50 ([3]; read-out: THP1(cGAMP) IC50): > 16.6 µM |
